Laboratory results taken from the supplement of paper PMC10307832.

How the values were obtained:
Experiment in all cases: relative viability (nuclei count vs DMSO), 5 days (fraction); higher = more cells survive
Afatinib + Olaparib = compound: CN(C)C/C=C/C(=O)Nc1cc2c(Nc3ccc(F)c(Cl)c3)ncnc2cc1O[C@H]1CCOC1 [Afatinib] + O=C(c1cc(Cc2n[nH]c(=O)c3ccccc23)ccc1F)N1CCN(C(=O)C2CC2)CC1 [Olaparib] (partner 8 µM)
How it was run: (§1)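 Lung cancer cell lines in 1536-well plates got either a single drug or a fixed anchor-drug dose together with five library-drug doses (not always all listed) in √10 steps, by pin tool, on the day after seeding. Nuclei were counted after 5 days, and relative viability is the treated-to-vehicle ratio of nuclei counts. Values are medians of duplicate plates.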

Afatinib + Pemetrexed = compound: CN(C)C/C=C/C(=O)Nc1cc2c(Nc3ccc(F)c(Cl)c3)ncnc2cc1O[C@H]1CCOC1 [Afatinib] + Nc1nc2[nH]cc(CCc3ccc(C(=O)N[C@@H](CCC(=O)O)C(=O)O)cc3)c2c(=O)[nH]1 [Pemetrexed] (partner 0.2 µM)
How it was run: as §1

Afatinib + Alpelisib = compound: CN(C)C/C=C/C(=O)Nc1cc2c(Nc3ccc(F)c(Cl)c3)ncnc2cc1O[C@H]1CCOC1 [Afatinib] + Cc1nc(NC(=O)N2CCC[C@H]2C(N)=O)sc1-c1ccnc(C(C)(C)C(F)(F)F)c1 [Alpelisib] (partner 2 µM)
How it was run: as §1

Afatinib + Foretinib = compound: CN(C)C/C=C/C(=O)Nc1cc2c(Nc3ccc(F)c(Cl)c3)ncnc2cc1O[C@H]1CCOC1 [Afatinib] + COc1cc2c(Oc3ccc(NC(=O)C4(C(=O)Nc5ccc(F)cc5)CC4)cc3F)ccnc2cc1OCCCN1CCOCC1 [Foretinib] (partner 0.25 µM)
How it was run: as §1

Row | Cell Line | relative viability (Afatinib + Olaparib; first compound 0.005 µM) | relative viability (Afatinib + Olaparib; first compound 0.01581 µM) | relative viability (Afatinib + Olaparib; first compound 0.05 µM) | relative viability (Afatinib + Olaparib; first compound 0.1581 µM) | relative viability (Afatinib + Olaparib; first compound 0.5 µM) | relative viability (Afatinib + Pemetrexed; first compound 0.005 µM) | relative viability (Afatinib + Pemetrexed; first compound 0.01581 µM) | relative viability (Afatinib + Pemetrexed; first compound 0.05 µM) | relative viability (Afatinib + Pemetrexed; first compound 0.1581 µM) | relative viability (Afatinib + Pemetrexed; first compound 0.5 µM) | relative viability (Afatinib + Alpelisib; first compound 0.005 µM) | relative viability (Afatinib + Alpelisib; first compound 0.01581 µM) | relative viability (Afatinib + Alpelisib; first compound 0.05 µM) | relative viability (Afatinib + Alpelisib; first compound 0.1581 µM) | relative viability (Afatinib + Alpelisib; first compound 0.5 µM) | relative viability (Afatinib + Foretinib; first compound 0.005 µM) | relative viability (Afatinib + Foretinib; first compound 0.01581 µM) | relative viability (Afatinib + Foretinib; first compound 0.05 µM) | relative viability (Afatinib + Foretinib; first compound 0.1581 µM) | relative viability (Afatinib + Foretinib; first compound 0.5 µM)
1 | NCI-H1755 | 0.906 | 0.857 | 0.921 | 0.864 | 0.813 | 0.405 | 0.611 | 0.463 | 0.402 | 0.421 | 0.492 | 0.89 | 0.882 | 0.888 | 0.929 | 0.947 | 0.937 | 0.964 | 0.901 | 0.897
2 | NCI-H2087 | 0.511 | 0.669 | 0.609 | 0.525 | 0.593 | 0.763 | 0.668 | 0.664 | 0.671 | 0.652 | 1.23 | 1.18 | 1 | 1.28 | 1.02 | 1.19 | 1.16 | 1.24 | 1.15 | 0.842
3 | NCI-H2228 | 0.935 | 0.518 | 0.704 | 0.506 | 0.579 | 0.283 | 0.306 | 0.334 | 0.298 | 0.322 | 0.74 | 0.78 | 0.688 |  | 0.589 | 0.914 | 0.88 | 0.774 | 0.795 | 0.759
4 | NCI-H727 | 0.827 | 0.824 | 0.606 | 0.572 | 0.815 |  |  |  |  |  | 0.579 | 0.462 | 0.503 | 0.417 | 0.561 | 0.82 | 0.588 | 0.762 | 0.709 | 0.752
5 | NCI-H650 | 0.339 | 0.429 | 0.441 | 0.407 | 0.399 | 0.922 | 0.849 | 0.951 | 0.854 | 0.87 | 1.23 | 1.11 | 1.14 | 1.25 | 1.06 | 1.13 | 0.997 | 1.06 | 1.02 | 0.998
6 | NCI-H520 | 0.313 | 0.32 | 0.329 | 0.365 | 0.368 | 0.771 | 0.717 | 0.749 | 0.725 | 0.668 | 1.07 | 0.903 | 1.02 | 1.01 | 0.872 | 0.83 | 0.656 | 0.698 | 0.812 | 0.744
7 | EBC-1 | 0.714 | 0.76 | 0.745 | 0.676 | 0.734 |  |  |  |  |  | 0.787 | 0.835 | 0.905 | 0.81 | 0.915 | 0.105 | 0.0995 | 0.0925 | 0.109 | 0.0966
8 | NCI-H661 | 0.811 | 0.732 | 0.638 | 0.589 | 0.637 | 0.956 | 0.861 | 0.809 | 0.616 | 0.688 | 0.666 | 0.389 | 0.475 | 0.398 | 0.349 | 1.06 | 0.874 | 0.738 | 0.75 | 0.625
9 | NCI-H1299 | 0.981 | 0.948 | 0.991 | 1.02 | 0.988 |  |  |  |  |  | 1.05 | 1.04 | 1.12 | 1.08 | 1.04 | 1.14 | 1.06 | 1.15 | 1.12 | 1.17
10 | LK-2 | 0.705 | 0.591 | 0.725 | 0.766 | 0.79 | 0.33 | 0.229 | 0.239 | 0.326 | 0.248 | 1.34 |  | 1.04 | 1.12 | 1.12 | 0.994 | 1.13 | 0.851 | 1.06 | 0.997
11 | NCI-H1993 | 0.828 | 0.883 | 0.641 | 0.557 | 0.704 | 0.569 | 0.526 | 0.638 | 0.551 | 0.506 | 0.608 | 0.771 | 0.721 | 0.765 | 0.705 | 0.551 | 0.598 | 0.6 | 0.675 | 0.618
12 | NCI-H1648 | 0.978 | 0.617 | 0.391 | 0.323 | 0.469 | 0.99 | 1.1 | 0.458 | 0.431 | 0.426 |  |  |  |  |  |  |  |  |  | 
13 | NCI-H1650 | 0.784 | 0.708 | 0.804 | 0.712 | 0.547 | 0.31 | 0.291 | 0.344 | 0.284 | 0.3 |  |  |  |  |  | 0.871 |  | 0.9 | 0.671 | 0.774
14 | SW 900 | 0.757 | 0.726 | 0.89 | 0.664 | 0.77 | 0.467 | 0.445 | 0.497 | 0.487 | 0.448 |  |  |  |  |  | 1.06 | 1.18 | 0.873 | 0.725 | 0.679
15 | IA-LM | 1.07 | 0.821 | 0.947 | 0.761 | 0.805 |  |  |  |  |  | 0.653 | 0.658 | 0.691 | 0.693 | 0.797 | 1.47 | 1.13 | 1.2 | 1.03 | 1.07
16 | NCI-H1563 |  |  |  |  |  | 0.782 | 0.719 | 0.921 | 0.777 | 0.822 | 0.953 | 0.953 | 0.87 | 0.83 | 1.03 | 0.891 | 0.967 | 0.933 | 0.836 | 0.87
17 | HCC-44 | 0.958 | 0.921 | 0.974 | 1 | 1.01 | 0.654 | 0.645 | 0.733 | 0.657 | 0.661 | 0.803 | 0.854 | 0.727 | 0.728 | 0.872 |  |  |  |  | 
18 | ABC-1 | 0.779 |  | 1.04 | 1.04 | 0.561 |  |  |  |  |  | 1.26 | 0.856 | 0.947 | 0.931 | 0.988 | 1.25 | 1.01 | 1.08 | 0.743 | 1.21
19 | NCI-H522 | 0.573 | 0.726 | 0.639 | 0.532 | 0.464 | 0.928 | 0.889 | 0.916 | 0.666 | 0.807 |  |  |  |  |  |  |  |  |  | 
20 | NCI-H1792 | 0.437 | 0.531 | 0.506 | 0.526 | 0.489 | 0.781 | 0.647 | 0.751 | 0.824 | 0.522 | 0.64 | 0.732 | 0.722 | 0.674 | 0.668 |  |  |  |  | 
